This series deals with CCRIS mutagenicity, Ames/micronucleus/aberration tests. The experiment in a line: CCRIS mutagenicity studies.
[1] abbreviates: Test System: AMES SALMONELLA TYPHIMURIUM, Strain/Indicator: TA100, Metabolic Activation: NONE, Method: PREINCUBATION
Where [2] appears, read: Test System: AMES SALMONELLA TYPHIMURIUM, Strain/Indicator: TA100, Method: PREINCUBATION
[3] abbreviates: Test System: AMES SALMONELLA TYPHIMURIUM, Strain/Indicator: TA98, Metabolic Activation: NONE, Method: PREINCUBATION

This passage reports mutagenic call results from PubChem BioAssay AID1259407 (Chemical Carcinogenesis Research Information System (CCRIS), 2018).

Active and inactive are the calls of the source. How the calls were made is not given here.

As for `CC(O)CN(C)N=O` (configuration not stated), the mutagenic call is, setting by setting: (Test System: AMES SALMONELLA TYPHIMURIUM, Strain/Indicator: TA100, Metabolic Activation: HAMSTER, LIVER, S-9, 3-METHYLCHOLANTHRENE, Method: PREINCUBATION) “active; positive”; (Test System: AMES SALMONELLA TYPHIMURIUM, Strain/Indicator: TA100, Metabolic Activation: HAMSTER, LIVER, S-9, PHENOBARBITAL, Method: PREINCUBATION) “active; positive”; (Test System: AMES SALMONELLA TYPHIMURIUM, Strain/Indicator: TA100, Metabolic Activation: HAMSTER, LIVER, S-9, Method: PREINCUBATION) “active; positive”; (Test System: AMES SALMONELLA TYPHIMURIUM, Strain/Indicator: TA100, Metabolic Activation: HUMAN, LIVER, S-9, Method: PREINCUBATION) “active; positive”; (Test System: AMES SALMONELLA TYPHIMURIUM, Strain/Indicator: TA100, Metabolic Activation: MONKEY, LIVER, S-9, Method: PREINCUBATION) “active; positive”; (Test System: AMES SALMONELLA TYPHIMURIUM, Strain/Indicator: TA100, Metabolic Activation: MOUSE, LIVER, S-9, 3-METHYLCHOLANTHRENE, Method: PREINCUBATION) “active; positive”. In addition, the mutagenic call by setting is: (Test System: AMES SALMONELLA TYPHIMURIUM, Strain/Indicator: TA100, Metabolic Activation: MOUSE, LIVER, S-9, PHENOBARBITAL, Method: PREINCUBATION) “active; positive”; (Test System: AMES SALMONELLA TYPHIMURIUM, Strain/Indicator: TA100, Metabolic Activation: MOUSE, LIVER, S-9, Method: PREINCUBATION) “active; positive”; under setting [1], “inactive; negative”; (Test System: AMES SALMONELLA TYPHIMURIUM, Strain/Indicator: TA100, Metabolic Activation: RABBIT, LIVER, S-9, Method: PREINCUBATION) “active; positive”; (Test System: AMES SALMONELLA TYPHIMURIUM, Strain/Indicator: TA100, Metabolic Activation: RAT, LIVER, CYTOSOL, PCB, Method: PREINCUBATION) “inactive; negative”; (Test System: AMES SALMONELLA TYPHIMURIUM, Strain/Indicator: TA100, Metabolic Activation: RAT, LIVER, MICROSOMES AND CYTOSOL, PCB, Method: PREINCUBATION) “active; positive”. The mutagenic call was “active; positive” (Test System: AMES SALMONELLA TYPHIMURIUM, Strain/Indicator: TA100, Metabolic Activation: RAT, LIVER, MICROSOMES AND G6PDH, PCB, Method: PREINCUBATION); “active; positive” (Test System: AMES SALMONELLA TYPHIMURIUM, Strain/Indicator: TA100, Metabolic Activation: RAT, LIVER, MICROSOMES, PCB, Method: PREINCUBATION); “inactive; negative” (Test System: AMES SALMONELLA TYPHIMURIUM, Strain/Indicator: TA100, Metabolic Activation: RAT, LIVER, S-9 (HEATED), PCB, Method: PREINCUBATION); “active; positive” (Test System: AMES SALMONELLA TYPHIMURIUM, Strain/Indicator: TA100, Metabolic Activation: RAT, LIVER, S-9, 3-METHYLCHOLANTHRENE, Method: PREINCUBATION); “active; positive” (Test System: AMES SALMONELLA TYPHIMURIUM, Strain/Indicator: TA100, Metabolic Activation: RAT, LIVER, S-9, PCB, Method: PREINCUBATION); “active; positive” (Test System: AMES SALMONELLA TYPHIMURIUM, Strain/Indicator: TA100, Metabolic Activation: RAT, LIVER, S-9, PHENOBARBITAL, Method: PREINCUBATION). In addition, the mutagenic call was “active; positive” (Test System: AMES SALMONELLA TYPHIMURIUM, Strain/Indicator: TA100, Metabolic Activation: RAT, LIVER, S-9, Method: PREINCUBATION); “inactive; negative” (Test System: AMES SALMONELLA TYPHIMURIUM, Strain/Indicator: TA100, Metabolic Activation: RAT, LIVER, S-9 WITHOUT NADP+, PCB, Method: PREINCUBATION); “inactive; negative” (Test System: AMES SALMONELLA TYPHIMURIUM, Strain/Indicator: TA100, Metabolic Activation: TOBACCO CELLS, Method: PREINCUBATION); “active; positive” under setting [2]; “active; positive” (Test System: CHINESE HAMSTER V-79, Strain/Indicator: V-79/OUABAIN, Metabolic Activation: HAMSTER, HEPATOCYTES, Method: CELL-MEDIATED).
On to `Cc1cc2cc3cc(C)c(N)cc3nc2cc1N`, for which the mutagenic call reads like this: (Test System: AMES SALMONELLA TYPHIMURIUM, Strain/Indicator: TA98, Method: PREINCUBATION) “active; positive”; under setting [2], “active; positive”.
Regarding `O=C(Cl)c1ccccc1C(=O)Cl`, the mutagenic call runs as follows: under setting [3], “active; positive”; (Test System: AMES SALMONELLA TYPHIMURIUM, Strain/Indicator: TA98, Metabolic Activation: RAT LIVER S-9, PCB, Method: PREINCUBATION) “active; positive”; under setting [1], “active; positive”; (Test System: AMES SALMONELLA TYPHIMURIUM, Strain/Indicator: TA100, Metabolic Activation: RAT LIVER S-9, PCB, Method: PREINCUBATION) “active; positive”; (Test System: AMES SALMONELLA TYPHIMURIUM, Strain/Indicator: TA104, Metabolic Activation: NONE, Method: PREINCUBATION) “active; positive”; (Test System: AMES SALMONELLA TYPHIMURIUM, Strain/Indicator: TA104, Metabolic Activation: RAT LIVER S-9, PCB, Method: PREINCUBATION) “active; positive”. Further, the mutagenic call reads like this: (Test System: E.COLI, Strain/Indicator: WP2 UVRA, Metabolic Activation: NONE, Method: PREINCUBATION) “active; positive”; (Test System: E.COLI, Strain/Indicator: WP2 UVRA, Metabolic Activation: RAT LIVER S-9, PCB, Method: PREINCUBATION) “active; positive”.
Consider `O.O.O.[Fe].[Fe]`, for which the mutagenic call was “inactive; negative” (Test System: AMES SALMONELLA TYPHIMURIUM, Strain/Indicator: TA97, Metabolic Activation: NONE, Method: PREINCUBATION); “inactive; negative” (Test System: AMES SALMONELLA TYPHIMURIUM, Strain/Indicator: TA97, Metabolic Activation: RAT, LIVER, S-9, AROCLOR 1254, Method: PREINCUBATION); “inactive; negative” (Test System: AMES SALMONELLA TYPHIMURIUM, Strain/Indicator: TA102, Metabolic Activation: NONE, Method: PREINCUBATION); “inactive; negative” (Test System: AMES SALMONELLA TYPHIMURIUM, Strain/Indicator: TA102, Metabolic Activation: RAT, LIVER, S-9, AROCLOR 1254, Method: PREINCUBATION).
As to `COc1cccc2c1C(=O)c1c(O)c3c(c(O)c1C2=O)CC(O)(C(C)=O)CC3O[C@H]1C[C@H](N2CCOCC2)[C@@H](O)C(C)O1` (some centres not stated), the mutagenic call is “active; positive” (Test System: CHINESE HAMSTER V-79, Strain/Indicator: V-79/8-AZAGUANINE, Metabolic Activation: NONE); “inactive; negative” (Test System: CHINESE HAMSTER V-79, Strain/Indicator: V-79/8-AZAGUANINE, Metabolic Activation: RAT, HEPATOCYTES); “active; positive” (Test System: UDS RAT HEPATOCYTES, Strain/Indicator: THY INCORP, Metabolic Activation: NONE, Method: AUTOMATIC COLONY COUNTER).
`CCOc1ccc2ccccc2c1`: the mutagenic call under setting [3] was “inactive; negative”; the mutagenic call (Test System: AMES SALMONELLA TYPHIMURIUM, Strain/Indicator: TA98, Metabolic Activation: RAT LIVER S-9, PHENOBARBITAL AND BETA-NAPHTHOFLAVONE, Method: PREINCUBATION) is “inactive; negative”; the mutagenic call under setting [1] is “inactive; negative”; the mutagenic call (Test System: AMES SALMONELLA TYPHIMURIUM, Strain/Indicator: TA100, Metabolic Activation: RAT LIVER S-9, PHENOBARBITAL AND BETA-NAPHTHOFLAVONE, Method: PREINCUBATION) was “inactive; negative”; the mutagenic call (Test System: AMES SALMONELLA TYPHIMURIUM, Strain/Indicator: TA1535, Metabolic Activation: NONE, Method: PREINCUBATION) was “inactive; negative”; the mutagenic call (Test System: AMES SALMONELLA TYPHIMURIUM, Strain/Indicator: TA1535, Metabolic Activation: RAT LIVER S-9, PHENOBARBITAL AND BETA-NAPHTHOFLAVONE, Method: PREINCUBATION) was “inactive; negative”. Moreover, the mutagenic call is, setting by setting: (Test System: AMES SALMONELLA TYPHIMURIUM, Strain/Indicator: TA1537, Metabolic Activation: NONE, Method: PREINCUBATION) “inactive; negative”; (Test System: AMES SALMONELLA TYPHIMURIUM, Strain/Indicator: TA1537, Metabolic Activation: RAT LIVER S-9, PHENOBARBITAL AND BETA-NAPHTHOFLAVONE, Method: PREINCUBATION) “inactive; negative”; (Test System: E.COLI, Strain/Indicator: WP2UVRA/PKM101, Metabolic Activation: NONE, Method: PREINCUBATION) “inactive; negative”; (Test System: E.COLI, Strain/Indicator: WP2UVRA/PKM101, Metabolic Activation: RAT LIVER S-9, PHENOBARBITAL AND BETA-NAPHTHOFLAVONE, Method: PREINCUBATION) “inactive; negative”.
On to `Cn1c(N)nc2nc3ncccc3cc21`, for which the mutagenic call is “inactive; negative” (Test System: AMES SALMONELLA TYPHIMURIUM, Strain/Indicator: TA98, Metabolic Activation: RAT, LIVER, S-9, AROCLOR 1254A, Method: STANDARD PLATE) and “active; positive” (Test System: AMES SALMONELLA TYPHIMURIUM, Strain/Indicator: YG1024, Metabolic Activation: RAT, LIVER, S-9, AROCLOR 1254A, Method: STANDARD PLATE).
